# Assay results: patent publication EP1000543A1, “A method for inducing resistance of plants to mycotoxin-producing fungi” (PROGUARD, INC., priority 1994, dated 1996)
# Columns and labels:
# [1] = test system: Fusarium subglutinans f. sp. pini; assay: bioassay based on inhibition of radial growth on potato dextrose agar (colony diameter); format: cell-based, Fusarium subglutinans f. sp. pini (isolate SL-1, UCB); conditions: for Radical Growth of Fusarium subglutinas f.sp. pini (colony diameter): 18° C, 5 days; for radical growth of Fusarium subglutinans: cinnamic aldehyde in vehicle with or without saponin, glutaraldehyde 2%
# Method: A bioassay based on inhibition of radial growth of Fusarium subglutinans f. sp. pini was used to test various aldehyde formulations. The bioassay was performed in a double blind fashion under sterile conditions. All concentrations given are those of particular solutions before dilution in the agar. Eight ml of test formulation was pipetted into 200 ml of molten 2% potato dextrose agar (DIFCO), and the mixture was dispersed into 5 plastic petri dishes (25 ml dish). Test formulations of 5 ppm benomyl were used as a positive control and sterile H2O as a negative control. Each of four plates was inoculated at the center with an agar plug transferred from a growing PDA culture of Fusarium subglutinans f. sp. pini (isolate SL-1, UCB) for each test formulation. A fifth plate was left noninoculated as a control for inhibited growth.
# All inoculated and non-inoculated plates were incubated at 18° C for 5 days, after which colony diameters were measured. […] No growth of the colony (diameter=0) indicates a maximum growth inhibition.
# [2] = at 25°C; cited from earlier work
# [3] = vapor pressure; format: physicochemical; conditions: at 25°C
compound,measurement,setting,value
"O=CCCCC=O [Glutaraldehyde, reference compound]",Radical Growth of Fusarium subglutinas f.sp. pini (colony diameter),"[1]; 2% glutaraldehyde, no Cinnamic Aldehyde",3.663
same,radical growth of Fusarium subglutinans,[1]; result in words,inhibited
"CCN(CC)c1cccc(C)c1 [N,N-diethyl-m-toluamine, reference compound]",vapor pressure,[2],167 x 10^-5 mm Hg
cinnamic aldehyde,Radical Growth of Fusarium subglutinas f.sp. pini (colony diameter),"[1]; Cinnamic Aldehyde 10 ppm in 2% Tween 80, 6% NaHCO3, with Saponin",4.088
same,Radical Growth of Fusarium subglutinas f.sp. pini (colony diameter),"[1]; Cinnamic Aldehyde 10 ppm in 2% Tween 80, 6% NaHCO3, no additive, concentration before dilution in agar",4.363
same,Radical Growth of Fusarium subglutinas f.sp. pini (colony diameter),"[1]; Cinnamic Aldehyde 100 ppm in 2% Tween 80, 6% NaHCO3, with Saponin",4.300
same,Radical Growth of Fusarium subglutinas f.sp. pini (colony diameter),"[1]; Cinnamic Aldehyde 100 ppm in 2% Tween 80, 6% NaHCO3, no additive, concentration before dilution in agar",4.238
same,Radical Growth of Fusarium subglutinas f.sp. pini (colony diameter),"[1]; Cinnamic Aldehyde 2,500 ppm in 2% Tween 80, 6% NaHCO3, with Saponin",3.600
same,Radical Growth of Fusarium subglutinas f.sp. pini (colony diameter),"[1]; Cinnamic Aldehyde 2,500 ppm in 2% Tween 80, 6% NaHCO3, no additive, concentration before dilution in agar",3.513
same,Radical Growth of Fusarium subglutinas f.sp. pini (colony diameter),"[1]; Cinnamic Aldehyde 5000 ppm in 2% Tween 80, 6% NaHCO3, with Saponin",2.913
same,Radical Growth of Fusarium subglutinas f.sp. pini (colony diameter),"[1]; Cinnamic Aldehyde 5000 ppm in 2% Tween 80, 6% NaHCO3, no additive, concentration before dilution in agar",2.980
same,Radical Growth of Fusarium subglutinas f.sp. pini (colony diameter),"[1]; Cinnamic Aldehyde 12,500 ppm in 2% Tween 80, 6% NaHCO3, with Saponin",0
same,Radical Growth of Fusarium subglutinas f.sp. pini (colony diameter),"[1]; Cinnamic Aldehyde 12,500 ppm in 2% Tween 80, 6% NaHCO3, no additive, concentration before dilution in agar",0
same,Radical Growth of Fusarium subglutinas f.sp. pini (colony diameter),"[1]; Cinnamic Aldehyde 25,000 ppm in 2% Tween 80, 6% NaHCO3, with Saponin",0
same,Radical Growth of Fusarium subglutinas f.sp. pini (colony diameter),"[1]; Cinnamic Aldehyde 25,000 ppm in 2% Tween 80, 6% NaHCO3, no additive, concentration before dilution in agar",0
same,Radial growth,"[1]; result in words, at 12,500 ppm",completely inhibited
same,radical growth of Fusarium subglutinans,[1]; result in words,inhibited
same,vapor pressure relative to HCA,[3],approximately 40 times higher
same,vapor pressure,[2],2970 x 10^-5 mm Hg
"CCCCNC(=O)n1c(NC(=O)OC)nc2ccccc21 [Benomyl, reference compound]",Radical Growth of Fusarium subglutinas f.sp. pini (colony diameter),"[1]; positive control, 5 ppm benomyl, no Cinnamic Aldehyde",0
"CCCCCCC(C=O)=Cc1ccccc1 [HCA, 2-hexyl-3-phenyl-2-propenal]",vapor pressure,[2],70 x 10^-5 mm Hg
